Measurements: ChEMBL document CHEMBL1137832, “P1' oxadiazole protease inhibitors with excellent activity against native and protease inhibitor-resistant HIV-1” (Bioorg Med Chem Lett, 2004)

Legend:
MT4 [1] = assay: Concentration required to inhibit spread of native HIV-1(V18) protease obtained from PI-resistant clinical isolate in MT-4 human T-lymphoid cells; assay type: functional; settings: read-out: CIC95
MT4 [2] = assay: Concentration required to inhibit spread of native HIV-1(Q-60) protease obtained from PI-resistant clinical isolate in MT-4 human T-lymphoid cells; assay type: functional; settings: read-out: CIC95
[3] = target: T1, Human immunodeficiency virus type 1 protease (Human immunodeficiency virus 1, UniProt Q72874); assay: Inhibitory concentration against HIV-1 protease (NL4-3)
MT4 [4] = assay: Concentration required to inhibit spread of native HIV-1(K-60) protease obtained from PI-resistant clinical isolate in MT-4 human T-lymphoid cells; assay type: functional; settings: read-out: CIC95
[5] = target: T1, Human immunodeficiency virus type 1 protease; assay: inhibitory concentration against HIV-1 protease from PI-resistant clinical isolate (V18)
MT4 [6] = assay: Concentration required to inhibit spread of native HIV-1(4X) protease obtained from PI-resistant clinical isolate in MT-4 human T-lymphoid cells; assay type: functional; settings: read-out: CIC95
MT4 [7] = assay: Concentration required to inhibit spread of native HIV-1(NL4-3) protease obtained from PI-resistant clinical isolate in MT-4 human T-lymphoid cells; assay type: functional; settings: read-out: CIC95

Structure (SMILES)	IC95 (MT4 [1]) [nM]	IC95 (MT4 [2]) [nM]	IC50 [3] [nM]	IC95 (MT4 [4]) [nM]	IC50 [5] [nM]	IC95 (MT4 [6]) [nM]	IC95 (MT4 [7]) [nM]
O=C(N[C@H]1CCOC[C@H]1O)[C@H](Cc1nnco1)C[C@H](O)CN1CCN(Cc2ccc(-c3ccc(Cl)cc3)o2)C[C@H]1C(=O)NCC(F)(F)F	125	31	0.01	63	0.09	31	63
Cc1nnc(C[C@H](C[C@H](O)CN2CCN(C(C)(C)c3ncc(-c4ccc(F)cc4)o3)C[C@H]2C(=O)NCC(F)(F)F)C(=O)N[C@H]2CCOC[C@H]2O)o1	63	31	0.02	125	0.19	31	125
O=C(N[C@H]1CCOC[C@H]1O)[C@H](Cc1nnc(-c2ccccc2)o1)C[C@H](O)CN1CCN(Cc2ccc(-c3ccc(Cl)cc3)o2)C[C@H]1C(=O)NCC(F)(F)F	250	63	0.01	≤ 8	–	125	15.6
CCCc1nnc(C[C@H](C[C@H](O)CN2CCN(C(C)(C)c3ncc(-c4ccc(Cl)cc4)o3)C[C@H]2C(=O)NCC(F)(F)F)C(=O)N[C@H]2CCOC[C@H]2O)o1	63	≤ 8	< 0.01	16	0.18	≤ 8	≤ 8
CC(C)(C)NC(=O)[C@@H]1CN(Cc2cccnc2)CCN1C[C@@H](O)C[C@@H](Cc1ccccc1)C(=O)N[C@H]1c2ccccc2C[C@H]1O	> 1000	> 1000	–	> 1000	–	400	50
CCCc1nnc(C[C@H](C[C@H](O)CN2CCN(C(C)(C)c3ncc(-c4cncc(OC)c4)o3)C[C@H]2C(=O)NCC(F)(F)F)C(=O)N[C@H]2CCOC[C@H]2O)o1	< 1000	500	0.32	500	–	500	500
CCCc1nnc(C[C@H](C[C@H](O)CN2CCN(Cc3ccc(-c4ccc(Cl)cc4)o3)C[C@H]2C(=O)NCC(F)(F)F)C(=O)N[C@H]2CCOC[C@H]2O)o1	125	16	< 0.01	≤ 8	–	31	≤ 8
COc1cncc(-c2cnc(C(C)(C)N3CCN(C[C@@H](O)C[C@@H](Cc4nnc(C)o4)C(=O)N[C@H]4CCOC[C@H]4O)[C@H](C(=O)NCC(F)(F)F)C3)o2)c1	> 1000	> 1000	0.4	> 1000	15	> 1000	> 1000
Cc1nnc(C[C@H](C[C@H](O)CN2CCN(C(C)(C)c3ncc(-c4ccc(Cl)cc4)o3)C[C@H]2C(=O)NCC(F)(F)F)C(=O)N[C@H]2CCOC[C@H]2O)o1	63	≤ 8	0.01	31	0.06	16	250
COc1cncc(-c2cnc(C(C)(C)N3CCN(C[C@@H](O)C[C@@H](Cc4nnc(-c5ccccc5)o4)C(=O)N[C@H]4CCOC[C@H]4O)[C@H](C(=O)NCC(F)(F)F)C3)o2)c1	< 1000	500	0.48	250	–	250	125
CC(C)(c1ncc(-c2ccc(F)cc2)o1)N1CCN(C[C@@H](O)C[C@@H](Cc2nnc(-c3ccccc3)o2)C(=O)N[C@H]2CCOC[C@H]2O)[C@H](C(=O)NCC(F)(F)F)C1	63	16	0.02	≤ 8	–	16	≤ 8
CC(C)(c1ncc(-c2ccc(F)cc2)o1)N1CCN(C[C@@H](O)C[C@@H](Cc2nnco2)C(=O)N[C@H]2CCOC[C@H]2O)[C@H](C(=O)NCC(F)(F)F)C1	125	31	0.02	125	0.06	31	125
CCCc1nnc(C[C@H](C[C@H](O)CN2CCN(C(C)(C)c3ncc(-c4ccc(F)cc4)o3)C[C@H]2C(=O)NCC(F)(F)F)C(=O)N[C@H]2CCOC[C@H]2O)o1	63	≤ 8	0.01	16	0.19	16	16
CC(C)(c1ncc(-c2ccc(Cl)cc2)o1)N1CCN(C[C@@H](O)C[C@@H](Cc2nnc(-c3ccccc3)o2)C(=O)N[C@H]2CCOC[C@H]2O)[C@H](C(=O)NCC(F)(F)F)C1	125	16	< 0.01	≤ 8	0.18	16	≤ 8
COc1cncc(-c2cnc(C(C)(C)N3CCN(C[C@@H](O)C[C@@H](Cc4nnco4)C(=O)N[C@H]4CCOC[C@H]4O)[C@H](C(=O)NCC(F)(F)F)C3)o2)c1	–	–	0.24	–	7.4	–	–
Cc1nnc(C[C@H](C[C@H](O)CN2CCN(Cc3ccc(-c4ccc(Cl)cc4)o3)C[C@H]2C(=O)NCC(F)(F)F)C(=O)N[C@H]2CCOC[C@H]2O)o1	63	31	< 0.01	31	–	31	≤ 63
CC(C)(c1ncc(-c2ccc(Cl)cc2)o1)N1CCN(C[C@@H](O)C[C@@H](Cc2nnco2)C(=O)N[C@H]2CCOC[C@H]2O)[C@H](C(=O)NCC(F)(F)F)C1	63	31	< 0.01	63	0.04	31	125
